Results from patent US20120115798A1, “METHOD FOR IMPROVING THE IMMUNITY OF A COMPANION ANIMAL” (priority 2010, published 2012).

Tests used:
Format in all cases: in vivo, dog (Labrador Retrievers)
CD18+ immune cells = assay: Flow cytometry of CD18+ immune cells in blood of dogs fed mannoheptulose diet; details: for CD18+ immune cells: analyzed by age
Excerpt: Eighty (n=80) Labrador Retrievers were randomized by age, gender, and littermate to receive either a complete and nutritionally balanced control diet that is similar to Eukanuba Senior Large Breed or an experimental diet that is identical to the control diet except for the inclusion of mannoheptulose as disclosed below. The dogs were split into two study groups. Study 1: A total of 39 older Labrador Retrievers are fed a nutritionally-balanced composition providing mannoheptulose at levels of 0 or about 2 mg/kg of body weight of the dog. Average age of the dogs (12 neutered males, 27 spayed females) at the start of a 4-year study is 6.7 years with a range of 5.1 to 8.2 years of age for the youngest and oldest dog within the cohort, respectively. The control composition is fed as a nutritionally-balanced composition, and it contains no mannoheptulose (0 mg/kg), avocado extract, avocado meal, or avocado concentrate. The test composition is the nutritionally-balanced control composition formulated with avocado extract, avocado meal, or avocado concentrate to provide mannoheptulose at a dose of about 2 mg/kg body weight of the dog. Older dogs are fed one-half their daily allotment of food at 0730 and 1430 each day. Dogs were fed to maintain body weight and body composition score (BCS) within a 2-4 score range. If food adjustments were made, they were made on a quarterly basis. All dogs were fasted overnight and morning meals were withheld until blood collections could be conducted for all immune measurements. Water is provided ad lib. Study 2: A total of 41 younger Labrador Retrievers are fed a nutritionally-balanced composition providing mannoheptulose at levels of 0 or about 2 mg/kg of body weight of the dog. Average age of the dogs (12 neutered males, 29 spayed females) at the start of the 36-month feeding study is 4.0 years with a range of 2.0 to 6.1 years of age for the youngest and oldest dog within the cohort, respectively. […] Cell populations were analyzed on a FACScan Flow Cytometer (Becton Dickinson) using CellQuest Pro Software.

T cells = assay: Lymphocyte blastogenesis (3H-thymidine), T cell mitogenic stimulation of PBMCs from dogs fed mannoheptulose diet
Excerpt: (§1) Phytohaemagglutinin (PHA), the lectin extract from the red kidney bean (Phaseolus vulgaris), contains potent, T-cell mitogenic activity (Hammerstrom, S. et al. (1982) Proc. Nall. Acad. Sci. USA 79, 1611-1615). Pokeweed mitogen (PWM), derived from Phytolacca Americana, is a B cell mitogen (Schreck et al., Annals of Clinical and Laboratory Science, Vol 12, Issue 6, 455-462). Together these three mitogens are used to stimulate immune cells in vitro in the lymphocyte blastogenesis assay, a well accepted indicator of immune response in vivo. Many studies have shown this assay to be responsive to the age-associated decline in immune system response (Goldrosen et al., 1977—Journal of surgical oncology 9: 229-234). A lower proliferative capacity indicates the immune cells cannot become activated and multiply as efficiently (a key step in the process of mounting an effective immune response).
(§2) Eighty (n=80) Labrador Retrievers were randomized by age, gender, and littermate to receive either a complete and nutritionally balanced control diet that is similar to Eukanuba Senior Large Breed or an experimental diet that is identical to the control diet except for the inclusion of mannoheptulose as disclosed below. The dogs were split into two study groups.
Study 1: A total of 39 older Labrador Retrievers are fed a nutritionally-balanced composition providing mannoheptulose at levels of 0 or about 2 mg/kg of body weight of the dog. Average age of the dogs (12 neutered males, 27 spayed females) at the start of a 4-year study is 6.7 years with a range of 5.1 to 8.2 years of age for the youngest and oldest dog within the cohort, respectively. The control composition is fed as a nutritionally-balanced composition, and it contains no mannoheptulose (0 mg/kg), avocado extract, avocado meal, or avocado concentrate. The test composition is the nutritionally-balanced control composition formulated with avocado extract, avocado meal, or avocado concentrate to provide mannoheptulose at a dose of about 2 mg/kg body weight of the dog. […]

B cells = assay: Lymphocyte blastogenesis (3H-thymidine), B cell mitogenic stimulation of PBMCs from dogs fed mannoheptulose diet
Excerpt: as §1
as §2, with “groups. […]” for “groups.”

8-OHdG = assay: Serum 8-OHdG ELISA (DNA oxidation) in dogs fed mannoheptulose diet
Excerpt: 8-Oxo-2′-deoxyguanosine (8-OHdG) is an oxidized derivative of deoxyguanosine. 8-OHdG is one of the major products of DNA oxidation. As part of the immune response, T and B cells must proliferate (become activated and divide). A key step to robust proliferation is DNA replication. If cells have damaged DNA or must repair DNA, this crucial step can be hindered. […] By lowering DNA damage in the mannoheptulose fed dogs, immune cell replication would be facilitated, helping to enable a key step in the activation cascade of the immune system. Eighty (n=80) Labrador Retrievers were randomized by age, gender, and littermate to receive either a complete and nutritionally balanced control diet that is similar to Eukanuba Senior Large Breed or an experimental diet that is identical to the control diet except for the inclusion of mannoheptulose as disclosed below. The dogs were split into two study groups. Study 1: A total of 39 older Labrador Retrievers are fed a nutritionally-balanced composition providing mannoheptulose at levels of 0 or about 2 mg/kg of body weight of the dog. […] Amount of 8-OHDG is quantified using a commercially available ELISA kit from Oxis Health Products, catalog #21026. […] Add […] of the Stop Solution, mix, wait 3 minutes and read the absorbance at 450 nm.

[1] = summary table, aging dogs consuming diet with MH, direction of change

Q: For `O=C(CO)[C@@H](O)[C@@H](O)[C@H](O)[C@H](O)CO` [mannoheptulose], which “CD18+ immune cells” value (CD18+ immune cells; dog group 1 (older dogs), test diet delivering 2 mg mannoheptulose per kg body weight vs diet matched controls, FIG. 1) is on record?
A: significant attenuation in the increase of CD18+ immune cells

Q: What about the “CD18+ immune cells” value (CD18+ immune cells; dog group 2 (younger dogs), test diet with mannoheptulose about 2 mg/kg vs diet matched controls, FIG. 2) of the same compound?
A: trend for attenuation in the increase of CD18+ immune cells

Q: What about the “% CD18 + cells” value (CD18+ immune cells; [1]) of the same compound?
A: ↓

Q: And the “T cell mitogenic stimulation to ConA” value (T cells; dog groups 1 and 2, mannoheptulose diet about 2 mg/kg vs control diet, FIGS. 3 and 4)?
A: either a statistical trend or a statistical improvement in T cell mitogenic stimulation to ConA

Q: What about the “T cell mitogenic stimulation to PHA” value (T cells; dog groups 1 and 2, mannoheptulose diet about 2 mg/kg vs control diet, FIGS. 5 and 6) of the same compound?
A: either a statistical trend or a statistical improvement in T cell mitogenic stimulation to PHA

Q: And the T cell proliferation (T cells; [1])?
A: ↑

Q: And the “B cell mitogenic stimulation to PWM” value (B cells; dog groups 1 and 2, mannoheptulose diet about 2 mg/kg vs control diet, FIGS. 7 and 8)?
A: either a statistical trend or a statistical improvement in B cell mitogenic stimulation to PWM

Q: And the B cell proliferation (B cells; [1])?
A: ↑

Q: What about the “serum 8-OHdG” value (8-OHdG; dog group 1, mannoheptulose diet vs control diet, FIG. 9) of the same compound?
A: significantly lower serum 8-OHdG

Q: And the DNA damage (8-OHdG; [1])?
A: ↓
